Here are results for seven compounds from US20190352297A1, “SELECTIVE AURORA A KINASE INHIBITORS” (UNIVERSITAT BERN, priority 2017, published 2019).

The target in experiment [1] is T1, Aurora A (Trp277) (Homo sapiens, UniProt O14965).
T1 construct: human Aurora A kinase domain (residues 122-403 in the pET24-d vector); His-tag (cleaved yes); made in house; host or cells: E. coli BL21 (DE3) Rosetta
T1 sequence (O14965 122-403): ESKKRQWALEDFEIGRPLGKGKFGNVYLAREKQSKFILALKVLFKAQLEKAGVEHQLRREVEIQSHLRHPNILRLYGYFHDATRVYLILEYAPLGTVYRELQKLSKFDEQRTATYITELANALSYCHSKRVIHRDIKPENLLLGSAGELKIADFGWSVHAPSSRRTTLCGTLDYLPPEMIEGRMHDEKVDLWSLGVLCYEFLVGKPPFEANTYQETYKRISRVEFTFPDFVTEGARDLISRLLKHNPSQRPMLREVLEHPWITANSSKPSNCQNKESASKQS
In words: Intrinsic tryptophan fluorescence. The class given is binding. The method, then:
Binding experiments were performed by mixing Aurora A (500 nM, 375 nM, and 150 nM for 77, 9, and 88, respectively) with varying concentrations (0-100 μM) of the different compounds in buffer (final DMSO concentration 1%), followed by incubation for 15 min at room temperature. Tryptophan fluorescence spectra were recorded at room temperature using an Infinite M1000 Pro plate reader (Tecan) and Corning 96 well half area, flat bottom, non-binding surface, black polystyrene plates. Excitation occurred at 284 nm (bandwidth ±5 nm) and emission at 340 nm (bandwidth ±10 nm). The gain was calculated from the well with the highest protein concentration. Each measurement was done in triplicate.

For experiment [2], the system named is Aurora B (pH3). The following applies: pH 3; read-out: cellular IC50 (pH3) (reported); cited from earlier work.
Experiment [3] deals with Aurora A localization, HeLa Kyoto cells. Briefly: Aurora A localization at the mitotic spindle (immunofluorescence). The format is cell-based, human. The following applies: overnight. The method, then: (§1) HeLa Kyoto cells were cultured in high-glucose DMEM with GlutaMAX (Life Technologies) media supplemented with 10% fetal calf serum (FCS) in a humidified 5% CO2 incubator at 37° C. For plasmid transfections, cells were seeded at 80-90% confluence. 4 μg of plasmid DNA in 100 μl OptiMEM and 4 μl of Lipofectamine 2000 (Life Technologies) in 100 μl OptiMEM were incubated in parallel for 5 minutes, mixed for 20 minutes and added to each well. All Aurora A clones were constructed using full-length Aurora A as a template with appropriate PCR primer pairs. […] GFP-Aurora AR137A and GFP-Aurora AW277A were engineered using a site directed mutagenesis kit (Agilent Technologies, no. 210515) with appropriate primers. For determining the mitotic index and the chromosome misalignment phenotype, cells were incubated with various concentrations of compounds for 20 h before analysis. Cells were likewise treated with 0.25 μM MLN8237 (Selleckchem, no. S1133) or 5 μM ZM447439 (Selleckchem, no. S1103). For flow cytometry analysis, 50 nM […] and 2.5 μM ZM447439 were used. For rescue experiments, HeLa Kyoto cells were first transfected with GFP-Aurora A, GFP-Aurora AR137A or GFP-Aurora AW277A for 20 h, followed by incubation with 9 for another 20 h before cells were fixed with cold methanol and stained. To assess the impact of compound 9 on cell cycle progression, DNA content was analyzed after propidium iodide staining using FACS (BD Accuri C6 flow cytometer).
Secondary antibodies were anti-mouse conjugated to Alexa488 or Alexa568, as well as anti-rabbit conjugated to Alexa488 or Alexa568, all used at 1:500 (Invitrogen). Confocal images were acquired on a Zeiss LSM 710 confocal microscope equipped with a Axiocam MRm (B/VVW) CCD camera using a 63×NA 1.0 oil objective and processed in ImageJ and Adobe Photoshop, maintaining relative image intensities within a series.

Experiment [4] relates to Aurora A (pT288). To be noted: read-out: cellular IC50 (pT288) (reported); cited from earlier work.
Experiment [5] relates to HeLa Kyoto cells. In words: Chromosome misalignment during metaphase. The format is cell-based, human. To be noted: HeLa Kyoto cells, 0.25 μM. As to the method:
as §1
(§2) For immunofluorescence, cells were fixed in cold methanol, washed in PBT (PBS supplemented with 0.05% Tween-20) and stained with the following primary antibodies: 1:200 rabbit anti-pT288 (Cell Signaling, C39D8), 1:200 rabbit anti-pH3S10 (Cell Signaling, D2C8), 1:500 mouse anti-α-tubulin (Transduction Laboratories, 612709), 1:300 mouse anti-GFP (MAB3580, Millipore), 1:200 anti-TPX2 (Santa Cruz Biotechnology, sc-32863), anti-Aurora A (Invitrogen, 458900). Secondary antibodies were anti-mouse conjugated to Alexa488 or Alexa568, as well as anti-rabbit conjugated to Alexa488 or Alexa568, all used at 1:500 (Invitrogen). Confocal images were acquired on a Zeiss LSM 710 confocal microscope equipped with a Axiocam MRm (B/VVW) CCD camera using a 63×NA 1.0 oil objective and processed in ImageJ and Adobe Photoshop, maintaining relative image intensities within a series.

For experiment [6], the system named is HeLa Kyoto cells. In words: DNA content analysis by flow cytometry. The class given is cell-based, human. The following applies: 48 h, 9 even at 10 μM. The method, then:
as §1, with “For rescue experiments, HeLa Kyoto cells were first transfected with GFP-Aurora A, GFP-Aurora AR137A or GFP-Aurora AW277A for 20 h, followed by incubation with 9 for another 20 h before cells were fixed with cold methanol and stained.” left out

The test system of experiment [7] is phospho-Histone H3 Ser10 (Aurora B). In words: Phospho-Histone H3 Ser10 in cells (Aurora B activity). The format is cell-based, human. To be noted: treated cells. As to the method:
as §1, §2

Experiment [8] addresses T2, Aurora A kinase domain (Homo sapiens, UniProt O14965).
T2 construct: human Aurora A kinase domain (residues 122-403 in the pET24-d vector); His-tag (cleaved yes); made in house; host or cells: E. coli BL21 (DE3) Rosetta
T2 sequence (O14965 122-403): T1 sequence (O14965 122-403)
In words: HTRF kinase assay, Aurora A. The class given is biochemical. As to the method:
The clone of human Aurora A kinase domain (residues 122-403 in the pET24-d vector) was kindly provided by the Montoya laboratory (University of Copenhagen). The construct was transformed into E. coli BL21 (DE3) Rosetta cells and protein expression was induced with 0.5 mM IPTG at 20° C. for 12 hours. The cells were harvested at 6,000×g for 25 min at 4° C. and resuspended in lysis buffer (50 mM Tris-HCl, 500 mM NaCl, 1 mM PMSF, pH=8.0). Disruption of the cells was performed by sonication cooled on ice, after which the debris were removed by centrifugation at 110,000×g for 30 min at 4° C. Aurora A was purified by affinity chromatography using NiNTA resin from Qiagen following the manufacturer's instructions. After loading, the resin was washed with lysis buffer, followed by a second wash with 6% elution buffer (50 mM Tris-HCl, 500 mM NaCl, 500 mM imidazole, pH=8.0). Protein was eluted with 100% elution buffer. The eluate was exchanged into final buffer (20 mM Tris-HCl, 200 mM NaCl, 0.5 mM EDTA, 2 mM DTT, pH=8.0) using a HiPrep 26/10 desalting column (GE Healthcare). The His-tag was cleaved with TEV protease at 4° C. overnight. […] Protein concentration was determined by UV absorbance. […]
Aurora A and AuroraB kinases were assayed using the homogeneous time-resolved fluorescence (HTRF) KinEASE STK2 kit from Cisbio (France). […] After incubation at room temperature for one hour, fluorescence was measured at 620 nm (europium cryptate) and 665 nm (XL-665) after excitation at 317 nm (lag time 60 μs, integration time 500 μs) using a Tecan Infinite M1000 PRO microplate reader (Greiner 384-well plates, white, non-binding, small volume). The ratio of fluorescence (665 nm/620 nm) was calculated for each well and the results were expressed as follows: specific signal=ratio (sample)−ratio (negative control), where ratio=665 nm/620 nm×10^4. Compounds were measured in threefold serial dilutions at 10 different concentrations, covering the concentration range from no to full inhibition. Each concentration was measured in duplicates, and two independent determinations were made for each IC50 value. […]

Experiment [9] relates to pThr288 Aurora A. In words: Phosphorylation of Aurora A Thr288 in cells. The class given is cell-based, human. The method, then:
as §1
as §2, with “Confocal images were acquired on a Zeiss LSM 710 confocal microscope equipped with a Axiocam MRm (B/VVW) CCD camera using a 63×NA 1.0 oil objective and processed in ImageJ and Adobe Photoshop, maintaining relative image intensities within a series.” left out

Structures are written as SMILES.

Broadly, the IC50 is the midpoint of a concentration-inhibition curve.

`CCc1ccc(N=C2SC(=Cc3ccnc(Nc4ccc(-c5nn[nH]n5)cc4)c3)C(=O)N2C)cc1` [Compound 88]: the “tryptophan fluorescence, environment of Trp277” value in [1] was “perturbed the environment of Trp277”.

With `COc1cc(Nc2ncc3c(n2)-c2ccc(Cl)cc2C(c2c(F)cccc2OC)=NC3)ccc1C(=O)O` [Compound 1, Alisertib, reference compound], the half-maximal inhibitory concentration (IC50) in experiment [2] is […]; in [4], […]. Moreover, the “Aurora A localization at spindle microtubules and centrosomes” value in experiment [3] is “present at centrosomes but not on spindle microtubules”; in [3] (listed as alisertib), “notably displaced from the spindle microtubules”. The compound also returned a misaligned chromosomes in experiment [5] of approximately 100%.

`COc1cc2c(Nc3ccc(NC(=O)c4ccccc4)cc3)ncnc2cc1OCCCN1CCOCC1` [Compound 94, ZM447439, reference compound]: the “accumulation of cells with 8N and 16N DNA contents” value in experiment [6] is listed as “massive accumulation”. For the same compound, the “distribution of phospho-Histone H3 Ser10” value in experiment [7] is “absent”.

In the case of `CCc1ccc(N=C2SC(Cc3ccnc(N)c3)C(=O)N2C)cc1` (racemic) [rac-91], the “fold less active than precursor 79” value in [8] (Aurora A inhibition relative to 79) worked out at 7 fold.

As to `O=C(O)[C@]1(Cc2cccc(Nc3nccs3)n2)CC[C@@H](Oc2cccc(Cl)c2F)CC1` [MK-5108], the IC50 in experiment [2] is more than 10 µM; in experiment [4], […].

On to `CCc1ccc(N=C2SC(=Cc3ccncc3)C(=O)N2CCOC)cc1` [Compound 77], for which, in experiment [1], the “tryptophan fluorescence, environment of Trp277” value is on record as “perturbed the environment of Trp277”.

On to `CCc1ccc(N=C2SC(Cc3ccnc(Nc4ccc(C(=O)O)cn4)c3)C(=O)N2C)cc1` (racemic) [rac-92], for which the IC50 in experiment [8] (free Aurora A, 20 μM ATP, HTRF, read-out: IC50 Aurora A (biochemical)) was found to be 0.024 µM. Further, the activity in cells result in [9] was “did not show any activity”. Also, the “cellular pThr288 Aurora-A levels” value in [9] (overnight incubation) is listed as “does not reduce pThr288 levels”.
